System: Paracoccus sp. strain L-25
Assay: Glutamate supplementation, test tube culture, lycopene-producing mutant, carotenoid by HPLC
Type: cell-based
Experimental: In the examples, carotenoids were quantified by high performance liquid chromatography (HPLC) as follows.
Two columns of Wakosil-II 5 SIL-100 (φ4.6×250 mm) (Wako Pure Chemical Industries, Ltd., Japan) were connected to each other for use as a column. Elution was performed by flowing an n-hexane-tetrahydrofuran-methanol mixed solution (40:20:1), which was a mobile phase, at a flow rate of 1.0 mL/minute at a constant temperature around room temperature. The measurement was performed as follows. Samples were each dissolved in tetrahydrofuran and then diluted 100-fold with the mobile phase. Each dilution was injected in a volume of 20 μL. The column eluate was detected at a wavelength of 470 nm. As a reference for quantification, astaxanthin (SIGMA, Cat. No. A9335) was used. The astaxanthin concentration of the reference solution was determined using the following equation after measuring the absorbance (A) of the reference solution at 477 nm and the area percentage % (B) of the astaxanthin peak at the time of HPLC analysis under the above conditions. Astaxanthin concentration (mg/L)=A/2150×B×100
The strain E-396 (FERM BP-4283) was mutated with N-methyl-N′-nitro-N-nitrosoguanidine to select mutant strain colonies with red-purple color. Carotenoid compounds in their culture solutions were further analyzed by high performance liquid chromatography to select a strain L-25 specifically producing lycopene.
A medium of the following composition (sucrose 30 g/L, corn steep liquor 30 g/L, potassium dihydrogenphosphate 1.5 g/L, disodium hydrogenphosphate 12-hydrate 3.8 g/L, calcium chloride dihydrate 5.0 g/L, magnesium sulfate -hydrate 0.7 g/L, iron sulfate 7-hydrate 0.3 g/L, pH 7.2) was dispensed in 8 ml volumes into cotton-plugged test tubes having an inner diameter of 18 mm and sterilized in an autoclave at 121° C. for 15 minutes to prepare a test tube medium for seed culture.
Next, a medium of the following composition (glucose 30 g/L, filtered corn steep liquor 5 g/L, ammonium sulfate 1.5 g/L, potassium dihydrogenphosphate 1.5 g/L, disodium hydrogenphosphate 12-hydrate 3.8 g/L, calcium chloride dihydrate 5.0 g/L, magnesium sulfate 7-hydrate 0.7 g/L, iron sulfate 7-hydrate 0.6 g/L, ester-based defoaming agent 0.2 g/L) was dispensed in 8 ml volumes into cotton-plugged test tubes having an inner diameter of 18 mm (2 tubes in total). One of the test tubes was supplemented with monosodium L-glutamate monohydrate to 30 mmol/L, while the other was supplemented with nothing as a control. Finally, the mediums in the tubes were adjusted to pH 7.1 with aqueous ammonia and then sterilized in an autoclave at 121° C. for 20 minutes.
The Paracoccus sp. strain L-25 selected above was inoculated, into the test tube medium for seed culture and then cultured with shaking at 28° C. for 2 days at 300 spin. The resulting culture solution was then inoculated in 0.1 ml volumes into the two test tube mediums and cultured with shaking at 28° C. for 3 days at 300 spm. Each culture solution was measured for its carotenoid concentration by HPLC.

[1] = Glutamic acid concentration 30 mmol/L, 28° C. for 3 days

Compound: N[C@@H](CCC(=O)O)C(=O)O [Glutamic acid, glutamic acid]
- produced carotenoid concentration compared to the sample without glutamic acid (30 mmol/L): higher produced carotenoid concentration
- Adonixanthin [1]: 0.3 mg/L
- Astaxanthin [1]: 0.3 mg/L
- Lycopene [1]: 19.6 mg/L
- Total carotenoid [1]: 20.2 mg/L

Reference: patent publication US8993282B2, “Carotenoid fermentation method” (JX Nippon Oil & Energy Corporation, priority 2008, dated 2015)
